Read-outs that look alike come from different tables or passages of the source. Starred links: 1 amine or outer side, 2 acyl side, 3 side chain; linkers in the order of their positions; H or OH if unused. Positions of bridges follow the written chain, without caps; N, C: chain ends. Non-standard residues stand in square brackets, D forms with d. Residues, ends and D or L forms follow the SMILES beside them. *: point of attachment. DOTA = O=C(O)CN1CCN(CC(=O)O)CCN(CC(=O)*)CCN(CC(=O)O)CC1; X6 = O=C(O)CCC(=O)Nc1cccc(C[C@H](N[*:1])C(=O)[*:2])c1; Benzoyl(4-SO2NH2) = NS(=O)(=O)c1ccc(C(=O)*)cc1; Propanoyl(3-SO2NH2) = NS(=O)(=O)CCC(=O)*; Phe(4-NH2) = Nc1ccc(C[C@H](N)C(=O)O)cc1; mXylylene = c1cc(C[*:1])cc(C[*:2])c1; NH(4-Cl-benzyl) = Clc1ccc(CN*)cc1; X18 = NS(=O)(=O)c1ccc(C(=O)*)nc1; X2 = O=C(CN1CCC(N[*:1])CC1)[*:2]; X26 = NS(=O)(=O)c1cccc(C(=O)*)c1; X1 = O=C(CN1CCN([*:1])CC1)[*:2]; dNMeA = CN[C@H](C)C(=O)O; Dap = NC[C@H](N)C(=O)O
Assays:
[1] = molecular target: T1, CAIX-expressing human HT-29 colorectal cancer cells (Homo sapiens, UniProt Q16790); test: FACS binding assay (IC50 determination, competition with tracer 3BP-2776 or 3BP-4149); settings: 4° C., 1 hour, read-out: pIC50 category (activity) (converted)
T1 construct: CAIX-expressing human HT-29 colorectal cancer cells; host or cells: HT-29 human colorectal cancer cells
Method in brief: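 HT-29 cells in FACS buffer (PBS, 1% FCS) at 500.000 cells/ml were exposed to compounds competing with a labelled tracer, with biotinylated compounds detected by 1 μg/mL APC-streptavidin for 30 min on ice. APC/Cy5 median fluorescence was read by flow cytometry and IC50 derived by 4PL fit.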

[2] = molecular target: T2, human carbonic anhydrase IX (hCAIX-Fc) (Homo sapiens, UniProt Q16790); test: Surface plasmon resonance assay with hCAIX-Fc; assay type: binding; settings: 25° C.; for t1/2 category (activity): SPR dissociation half-life, hCAIX-Fc; for Kd: SPR, hCAIX-Fc captured, read-out: pKD category (activity) (converted)
T2 construct: purchased SinoBliological (Sino Biological) 10107-H02H

[3] = FACS binding assay, HT-29 cells, competition with tracer 3BP-4149 (3 nM, Cy5-labeled)
[4] = FACS binding assay, HT-29 cells, competition with tracer 3BP-2776 (10 nM, biotin-labeled)
[5] = FACS competition on HT-29 cells, Tracer ID 3BP-2776 (10 nM, biotin-labeled)

SMILES	IC50 [1, 3]	t1/2 category (activity) [2]	Kd [2]	IC50 [1, 4]	IC50 [1, 5]
CC(C)C[C@@H]1NC(=O)[C@H](Cc2ccc(NC(=O)c3ccc(S(N)(=O)=O)cc3)cc2)NC(=O)[C@H](CC(=O)O)NC(=O)[C@H]2CCCN2C(=O)[C@H](CCC(=O)O)NC(=O)[C@@H](NC(=O)[C@H](Cc2ccc(O)cc2)NC(=O)[C@@H](NC(=O)CN2CCC(NC(=O)CN3CCN(CC(=O)O)CCN(CC(=O)O)CCN(CC(=O)O)CC3)CC2)C(C)C)CSCc2cccc(c2)CSC[C@@H](C(N)=O)NC(=O)[C@H](CO)NC(=O)[C@H](Cc2c[nH]c3ccccc23)NC(=O)[C@H]([C@@H](C)O)NC1=O [3BP-4398] ({DOTA}-[X2]VYCE[dP]D[Phe(4-NH2)](Benzoyl(4-SO2NH2))LTWSC-NH2; linker 4-13 via mXylylene)	0.01 to 0.0794 µM	C (t1/2 between 2.1 and 5.0 minutes)	< 0.01 µM		
CC(C)C[C@@H]1NC(=O)[C@H](Cc2c[nH]c3ccccc23)NC(=O)[C@H](CCC(=O)NCc2ccc(Cl)cc2)NC(=O)[C@H]2CCCN2C(=O)[C@H](CCC(=O)O)NC(=O)[C@@H](NC(=O)[C@H](Cc2ccc(O)cc2)NC(=O)[C@@H](NC(=O)CN2CCC(NC(=O)CN3CCN(CC(=O)O)CCN(CC(=O)O)CCN(CC(=O)O)CC3)CC2)C(C)C)CSCc2cccc(c2)CSC[C@@H](C(N)=O)NC(=O)[C@H](CO)NC(=O)[C@H](Cc2c[nH]c3ccccc23)NC(=O)[C@H]([C@@H](C)O)NC1=O [3BP-4334] ({DOTA}-[X2]VYCE[dP]E(NH(4-Cl-benzyl))WLTWSC-NH2; linker 4-13 via mXylylene)	0.01 to 0.0794 µM	A (t1/2>15.0 minutes)	< 0.01 µM		
CC(C)C[C@@H]1NC(=O)[C@H](Cc2cccc(NC(=O)CCC(=O)O)c2)NC(=O)[C@H](CC(=O)O)NC(=O)[C@H]2CCCN2C(=O)[C@H](CCC(=O)O)NC(=O)[C@@H]2CSCc3cccc(c3)CSC[C@@H](C(N)=O)NC(=O)[C@H](CNC(=O)C[C@H](NC(=O)[C@@H](NC(=O)CN3CCC(NC(=O)CN4CCN(CC(=O)O)CCN(CC(=O)O)CCN(CC(=O)O)CC4)CC3)C(C)C)C(=O)N2)NC(=O)[C@H](Cc2c[nH]c3ccccc23)NC(=O)[C@H]([C@@H](C)O)NC1=O [3BP-4377] ({DOTA}-[X2]VDCE[dP]D[X6]LTW[Dap]C-NH2; lactam 3-12; linker 4-13 via mXylylene)	< 0.01 µM	A (t1/2>15.0 minutes)	< 0.01 µM		
CC(C)C[C@@H]1NC(=O)[C@H](Cc2c[nH]c3ccccc23)NC(=O)[C@H](CC(=O)O)NC(=O)[C@H]2CCCN2C(=O)[C@H](CCC(=O)O)NC(=O)[C@@H](NC(=O)[C@H](CO)NC(=O)[C@@H](NC(=O)CN2CCC(NC(=O)CN3CCN(CC(=O)O)CCN(CC(=O)O)CCN(CC(=O)O)CC3)CC2)C(C)C)CSCc2cccc(c2)CSC[C@@H](C(N)=O)NC(=O)[C@H](CO)NC(=O)[C@H](Cc2c[nH]c3ccccc23)NC(=O)[C@H]([C@@H](C)O)NC1=O [3BP-4105] ({DOTA}-[X2]VSCE[dP]DWLTWSC-NH2; linker 4-13 via mXylylene)		B (t1/2 between 5.1 and 15.0 minutes)	< 0.01 µM	< 0.01 µM	
CC(=O)N[C@H](C(=O)N[C@@H](Cc1ccc(O)cc1)C(=O)N[C@H]1CSCc2cccc(c2)CSC[C@@H](C(N)=O)NC(=O)[C@H](C)NC(=O)[C@H](Cc2c[nH]c3ccccc23)NC(=O)[C@H]([C@@H](C)O)NC(=O)[C@H](CC(C)C)NC(=O)[C@H](Cc2c[nH]c3ccccc23)NC(=O)[C@H](CC(=O)O)NC(=O)[C@@H](C)N(C)C(=O)[C@H](CCC(=O)O)NC1=O)C(C)C [3BP-3281] (Ac-VYCE[dNMeA]DWLTWAC-NH2; linker 3-12 via mXylylene)			< 0.01 µM		< 0.01 µM
CC(C)C[C@@H]1NC(=O)[C@H](Cc2c[nH]c3ccccc23)NC(=O)[C@H](CC(=O)O)NC(=O)[C@H]2CCCN2C(=O)[C@H](CCC(=O)O)NC(=O)[C@@H](NC(=O)CN2CCC(NC(=O)CN3CCN(CC(=O)O)CCN(CC(=O)O)CCN(CC(=O)O)CC3)CC2)CSCc2cccc(c2)CSC[C@@H](C(N)=O)NC(=O)[C@H](CO)NC(=O)[C@H](Cc2c[nH]c3ccccc23)NC(=O)[C@H]([C@@H](C)O)NC1=O [3BP-3858] ({DOTA}-[X2]CE[dP]DWLTWSC-NH2; linker 2-11 via mXylylene)		D (t1/2≤2.0 minutes)	< 0.01 µM		< 0.01 µM
CC(C)C[C@@H]1NC(=O)[C@H](Cc2ccc(NC(=O)CCS(N)(=O)=O)cc2)NC(=O)[C@H](CC(=O)O)NC(=O)[C@H]2CCCN2C(=O)[C@H](CCC(=O)O)NC(=O)[C@@H]2CSCc3cccc(c3)CSC[C@@H](C(N)=O)NC(=O)[C@H](CNC(=O)CC[C@H](NC(=O)CN3CCN(CC(=O)O)CCN(CC(=O)O)CCN(CC(=O)O)CC3)C(=O)N2)NC(=O)[C@H](Cc2c[nH]c3ccccc23)NC(=O)[C@H]([C@@H](C)O)NC1=O [3BP-4505] ({DOTA}-ECE[dP]D[Phe(4-NH2)](Propanoyl(3-SO2NH2))LTW[Dap]C-NH2; lactam 1-10; linker 2-11 via mXylylene)		A (t1/2>15.0 minutes)	< 0.01 µM	< 0.01 µM	
CC(C)C[C@@H]1NC(=O)[C@H](Cc2ccc(NC(=O)CCS(N)(=O)=O)cc2)NC(=O)[C@H](CC(=O)O)NC(=O)[C@H]2CCCN2C(=O)[C@H](CCC(=O)O)NC(=O)[C@@H]2CSCc3cccc(c3)CSC[C@@H](C(N)=O)NC(=O)[C@H](CNC(=O)C[C@H](NC(=O)CN3CCN(CC(=O)O)CCN(CC(=O)O)CCN(CC(=O)O)CC3)C(=O)N2)NC(=O)[C@H](Cc2c[nH]c3ccccc23)NC(=O)[C@H]([C@@H](C)O)NC1=O [3BP-4489] ({DOTA}-DCE[dP]D[Phe(4-NH2)](Propanoyl(3-SO2NH2))LTW[Dap]C-NH2; lactam 1-10; linker 2-11 via mXylylene)	< 0.01 µM	A (t1/2>15.0 minutes)	< 0.01 µM		

More lines, now with the values ahead:

IC50 [1, 3]	t1/2 category (activity) [2]	Kd [2]	IC50 [1, 4]	IC50 [1, 5]	SMILES
< 0.01 µM	A (t1/2>15.0 minutes)	< 0.01 µM			CC(C)C[C@@H]1NC(=O)[C@H](Cc2ccc(NC(=O)CCS(N)(=O)=O)cc2)NC(=O)[C@H](CC(=O)O)NC(=O)[C@H]2CCCN2C(=O)[C@H](CCC(=O)O)NC(=O)[C@@H](NC(=O)[C@H](Cc2ccc(O)cc2)NC(=O)[C@@H](NC(=O)CN2CCC(NC(=O)CN3CCN(CC(=O)O)CCN(CC(=O)O)CCN(CC(=O)O)CC3)CC2)C(C)C)CSCc2cccc(c2)CSC[C@@H](C(N)=O)NC(=O)[C@H](CO)NC(=O)[C@H](Cc2c[nH]c3ccccc23)NC(=O)[C@H]([C@@H](C)O)NC1=O [3BP-4400] ({DOTA}-[X2]VYCE[dP]D[Phe(4-NH2)](Propanoyl(3-SO2NH2))LTWSC-NH2; linker 4-13 via mXylylene)
0.1 to 0.794 µM	D (t1/2≤2.0 minutes)	0.01 to 0.0794 µM			CC(C)C[C@@H]1NC(=O)[C@H](Cc2cccc(NC(=O)C[C@@H]3NC(=O)CNC3=O)c2)NC(=O)[C@H](CC(=O)O)NC(=O)[C@H]2CCCN2C(=O)[C@H](CCC(=O)O)NC(=O)[C@@H](NC(=O)[C@H](Cc2ccc(O)cc2)NC(=O)[C@@H](NC(=O)CN2CCC(NC(=O)CN3CCN(CC(=O)O)CCN(CC(=O)O)CCN(CC(=O)O)CC3)CC2)C(C)C)CSCc2cccc(c2)CSC[C@@H](C(N)=O)NC(=O)[C@H](CO)NC(=O)[C@H](Cc2c[nH]c3ccccc23)NC(=O)[C@H]([C@@H](C)O)NC1=O [3BP-4288]
	C (t1/2 between 2.1 and 5.0 minutes)	< 0.01 µM	0.01 to 0.0794 µM		CC(C)C[C@@H]1NC(=O)[C@H](Cc2cccc(NC(=O)CCCC(=O)NO)c2)NC(=O)[C@H](CC(=O)O)NC(=O)[C@H]2CCCN2C(=O)[C@H](CCC(=O)O)NC(=O)[C@@H](NC(=O)[C@H](CCC(N)=O)NC(=O)CN2CCN(C(=O)CN3CCN(CC(=O)O)CCN(CC(=O)O)CCN(CC(=O)O)CC3)CC2)CSCc2cccc(c2)CSC[C@@H](C(N)=O)NC(=O)[C@H](CO)NC(=O)[C@H](Cc2c[nH]c3ccccc23)NC(=O)[C@H]([C@@H](C)O)NC1=O [3BP-4515]
0.01 to 0.0794 µM	C (t1/2 between 2.1 and 5.0 minutes)	< 0.01 µM			CC(C)C[C@@H]1NC(=O)[C@H](Cc2ccc(NC(=O)c3ccc(S(N)(=O)=O)cn3)cc2)NC(=O)[C@H](CC(=O)O)NC(=O)[C@H]2CCCN2C(=O)[C@H](CCC(=O)O)NC(=O)[C@@H](NC(=O)[C@H](CCC(N)=O)NC(=O)CN2CCN(C(=O)CN3CCN(CC(=O)O)CCN(CC(=O)O)CCN(CC(=O)O)CC3)CC2)CSCc2cccc(c2)CSC[C@@H](C(N)=O)NC(=O)[C@H](CO)NC(=O)[C@H](Cc2c[nH]c3ccccc23)NC(=O)[C@H]([C@@H](C)O)NC1=O [3BP-4480] ({DOTA}-[X1]QCE[dP]D[Phe(4-NH2)](X18)LTWSC-NH2; linker 3-12 via mXylylene)
< 0.01 µM	A (t1/2>15.0 minutes)	< 0.01 µM			CC(C)C[C@@H]1NC(=O)[C@H](Cc2ccc(NC(=O)c3cccc(S(N)(=O)=O)c3)cc2)NC(=O)[C@H](CC(=O)O)NC(=O)[C@H]2CCCN2C(=O)[C@H](CCC(=O)O)NC(=O)[C@@H](NC(=O)[C@H](Cc2ccc(O)cc2)NC(=O)[C@@H](NC(=O)CN2CCC(NC(=O)CN3CCN(CC(=O)O)CCN(CC(=O)O)CCN(CC(=O)O)CC3)CC2)C(C)C)CSCc2cccc(c2)CSC[C@@H](C(N)=O)NC(=O)[C@H](CO)NC(=O)[C@H](Cc2c[nH]c3ccccc23)NC(=O)[C@H]([C@@H](C)O)NC1=O [3BP-4408] ({DOTA}-[X2]VYCE[dP]D[Phe(4-NH2)](X26)LTWSC-NH2; linker 4-13 via mXylylene)
